Results reported in PubChem BioAssay (NCI).
Values joined by “and” are separate entries in the source; they are usually repeats but may differ in a detail not shown here. Equal entries are not always repeated.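 How tested: cells in 96-well plates exposed to compound for 48 hours at five concentrations. The concentration for 50% growth inhibition is given as GI50. TGI: total growth inhibition.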

Experiments:
Assay in all cases: inhibition of tumour cell growth, NCI panel, 48 h; in the data active = GI50 below about 0.43 µM; inactive = the rest
MALME-3M melanoma = tested on: MALME-3M melanoma
NCI-H522 lung = tested on: NCI-H522 lung
OVCAR-8 ovarian = tested on: OVCAR-8 ovarian
SK-MEL-2 melanoma = tested on: SK-MEL-2 melanoma
786-0 renal = tested on: 786-0 renal
RXF 393 renal = tested on: RXF 393 renal
M14 melanoma = tested on: M14 melanoma
EKVX NSCLC = tested on: EKVX NSCLC
COLO 205 colon = tested on: COLO 205 colon
OVCAR-5 ovarian = tested on: OVCAR-5 ovarian
NCI/ADR-RES ovarian = tested on: NCI/ADR-RES ovarian
SK-MEL-28 melanoma = tested on: SK-MEL-28 melanoma
MOLT-4 leukemia = tested on: MOLT-4 leukemia
PC-3 prostate = tested on: PC-3 prostate
MCF7 breast = tested on: MCF7 breast
DU-145 prostate = tested on: DU-145 prostate
CCRF-CEM leukemia = tested on: CCRF-CEM leukemia
SK-MEL-5 melanoma = tested on: SK-MEL-5 melanoma
HOP-62 NSCLC = tested on: HOP-62 NSCLC
SF-539 CNS = tested on: SF-539 CNS
MDA-N = tested on: MDA-N
HCT-116 colon = tested on: HCT-116 colon
A498 renal = tested on: A498 renal
NCI-H460 lung = tested on: NCI-H460 lung
SK-OV-3 ovarian = tested on: SK-OV-3 ovarian
T-47D breast = tested on: T-47D breast
MDA-MB-435 = tested on: MDA-MB-435
SF-268 CNS = tested on: SF-268 CNS
OVCAR-3 ovarian = tested on: OVCAR-3 ovarian
HS 578T breast = tested on: HS 578T breast
HCC-2998 colon = tested on: HCC-2998 colon
HOP-92 NSCLC = tested on: HOP-92 NSCLC
RPMI-8226 leukemia = tested on: RPMI-8226 leukemia
SNB-19 CNS = tested on: SNB-19 CNS
UACC-62 melanoma = tested on: UACC-62 melanoma
A549 NSCLC = tested on: A549 NSCLC
SR leukemia = tested on: SR leukemia
KM12 colon = tested on: KM12 colon
SF-295 CNS = tested on: SF-295 CNS
U251 CNS = tested on: U251 CNS
NCI-H226 lung = tested on: NCI-H226 lung
HL-60(TB) leukemia = tested on: HL-60(TB) leukemia
ACHN renal = tested on: ACHN renal
UO-31 renal = tested on: UO-31 renal
SN12C renal = tested on: SN12C renal
UACC-257 melanoma = tested on: UACC-257 melanoma
HCT-15 colon = tested on: HCT-15 colon
BT-549 breast = tested on: BT-549 breast
CAKI-1 renal = tested on: CAKI-1 renal
MDA-MB-231 breast = tested on: MDA-MB-231 breast
K-562 leukemia = tested on: K-562 leukemia
HT29 colon = tested on: HT29 colon
NCI-H23 lung = tested on: NCI-H23 lung
TK-10 renal = tested on: TK-10 renal
OVCAR-4 ovarian = tested on: OVCAR-4 ovarian
SW-620 colon = tested on: SW-620 colon
LOX IMVI melanoma = tested on: LOX IMVI melanoma
IGROV1 ovarian = tested on: IGROV1 ovarian

N#CC(N=Nc1ccc(Cl)cc1)c1nc2ccccc2o1 (stereo unspecified)
95.6 µM: TGI (BT-549 breast)
56.2 µM: TGI (SF-539 CNS)
67.9 µM: TGI (SF-295 CNS)
50.2 µM: TGI (K-562 leukemia)
98.2 µM: TGI (NCI-H23 lung)
81.1 µM: TGI (NCI-H522 lung)
88.7 µM: TGI (SK-MEL-2 melanoma)
> 100 µM: TGI (MALME-3M melanoma) | TGI (OVCAR-8 ovarian) | TGI (786-0 renal) | TGI (RXF 393 renal) | TGI (M14 melanoma) | TGI (EKVX NSCLC) | TGI (COLO 205 colon) | TGI (OVCAR-5 ovarian) | TGI (NCI/ADR-RES ovarian) | TGI (SK-MEL-28 melanoma) | TGI (MOLT-4 leukemia) | TGI (PC-3 prostate) | TGI (MCF7 breast) | TGI (DU-145 prostate) | TGI (SK-MEL-5 melanoma) | TGI (HOP-62 NSCLC) | TGI (MDA-N) | TGI (HCT-116 colon) | TGI (A498 renal) | TGI (NCI-H460 lung) | TGI (SK-OV-3 ovarian) | TGI (T-47D breast) | TGI (MDA-MB-435) | TGI (SF-268 CNS) | TGI (OVCAR-3 ovarian) | TGI (HS 578T breast) | TGI (HCC-2998 colon) | TGI (RPMI-8226 leukemia) | TGI (SNB-19 CNS) | TGI (UACC-62 melanoma) | TGI (A549 NSCLC) | TGI (SR leukemia) | TGI (KM12 colon) | TGI (U251 CNS) | TGI (NCI-H226 lung) | TGI (HL-60(TB) leukemia) | TGI (ACHN renal) | TGI (UO-31 renal) | TGI (SN12C renal) | TGI (UACC-257 melanoma) | TGI (HCT-15 colon) | TGI (CAKI-1 renal) | TGI (MDA-MB-231 breast) | TGI (HT29 colon) | TGI (TK-10 renal) | TGI (OVCAR-4 ovarian)
45.6 µM: TGI (CCRF-CEM leukemia)
70.4 µM: TGI (HOP-92 NSCLC)

COC(=O)C1=COC(C)C2CN3CCc4c([nH]c5ccccc45)C3CC12 (stereo unspecified)
65.8 µM and > 100 µM: TGI (HS 578T breast)
56 µM and > 100 µM: TGI (RPMI-8226 leukemia)
40.2 µM and > 100 µM: TGI (786-0 renal)
39.2 µM and > 100 µM: TGI (SR leukemia)
81.4 µM and > 100 µM: TGI (U251 CNS)
85.6 µM and > 100 µM: TGI (CAKI-1 renal)
44.7 µM and > 100 µM: TGI (HCC-2998 colon)
41.8 µM and > 100 µM: TGI (SK-MEL-28 melanoma)
36.4 µM and > 100 µM: TGI (COLO 205 colon)
59.5 µM and > 100 µM: TGI (SF-539 CNS)
29.4 µM and > 100 µM: TGI (NCI-H226 lung)
80.2 µM and > 100 µM: TGI (IGROV1 ovarian)
80.9 µM and > 100 µM: TGI (EKVX NSCLC)
> 100 µM: TGI (OVCAR-8 ovarian) | TGI (M14 melanoma) | TGI (OVCAR-5 ovarian) | TGI (NCI/ADR-RES ovarian) | TGI (MCF7 breast) | TGI (DU-145 prostate) | TGI (HOP-62 NSCLC) | TGI (MDA-N) | TGI (SK-OV-3 ovarian) | TGI (MDA-MB-435) | TGI (SF-268 CNS) | TGI (OVCAR-3 ovarian) | TGI (SNB-19 CNS) | TGI (UACC-62 melanoma) | TGI (A549 NSCLC) | TGI (SF-295 CNS) | TGI (ACHN renal) | TGI (UO-31 renal) | TGI (UACC-257 melanoma) | TGI (HCT-15 colon) | TGI (BT-549 breast) | TGI (NCI-H23 lung) | TGI (OVCAR-4 ovarian)
92.1 µM and > 100 µM: TGI (SK-MEL-2 melanoma)
77.4 µM and > 100 µM: TGI (HOP-92 NSCLC)
75.7 µM and > 100 µM: TGI (SW-620 colon)
95.2 µM and > 100 µM: TGI (PC-3 prostate)
27.2 µM and > 100 µM: TGI (HT29 colon)
88.5 µM and > 100 µM: TGI (TK-10 renal)
inactive: GI50 (MALME-3M melanoma) 14.4 µM and 49.5 µM | GI50 (NCI-H522 lung) 23.1 µM and 91.2 µM | GI50 (OVCAR-8 ovarian) 18.6 µM and > 100 µM | GI50 (SK-MEL-2 melanoma) 20 µM and > 100 µM | GI50 (786-0 renal) 18.8 µM and 54.8 µM | GI50 (RXF 393 renal) 17.3 µM and > 100 µM | GI50 (M14 melanoma) 38.4 µM and > 100 µM | GI50 (EKVX NSCLC) 17.8 µM and > 100 µM | GI50 (COLO 205 colon) 18.2 µM and > 100 µM | GI50 (NCI/ADR-RES ovarian) 22.6 µM and > 100 µM | GI50 (SK-MEL-28 melanoma) 16.1 µM and > 100 µM | GI50 (MOLT-4 leukemia) 11 µM and 28.3 µM | GI50 (PC-3 prostate) 24 µM and > 100 µM | GI50 (MCF7 breast) 32.1 µM and > 100 µM | GI50 (DU-145 prostate) 33.7 µM and > 100 µM | GI50 (SW-620 colon) 22.8 µM and > 100 µM | GI50 (CCRF-CEM leukemia) 20.1 µM and 50.5 µM | GI50 (SK-MEL-5 melanoma) 22.6 µM and > 100 µM | GI50 (SF-539 CNS) 22.4 µM and > 100 µM | GI50 (MDA-N) 31.6 µM and > 100 µM | GI50 (HCT-116 colon) 19 µM and > 100 µM | GI50 (A498 renal) 21.1 µM and 74.9 µM | GI50 (NCI-H460 lung) 24 µM and > 100 µM | GI50 (T-47D breast) 16.6 µM and > 100 µM | GI50 (OVCAR-3 ovarian) 24.2 µM and > 100 µM | GI50 (HCC-2998 colon) 20.6 µM and > 100 µM | GI50 (HOP-92 NSCLC) 18.3 µM and > 100 µM | GI50 (RPMI-8226 leukemia) 14.6 µM and 69 µM | GI50 (UACC-62 melanoma) 24.4 µM and > 100 µM | GI50 (A549 NSCLC) 37.6 µM and > 100 µM | GI50 (SR leukemia) 12.6 µM and 27.8 µM | GI50 (KM12 colon) 17.8 µM and > 100 µM | GI50 (LOX IMVI melanoma) 18.5 µM and > 100 µM | GI50 (SF-295 CNS) 30.6 µM and 72.9 µM | GI50 (U251 CNS) 24.6 µM and > 100 µM | GI50 (HL-60(TB) leukemia) 17.5 µM and 46.1 µM | GI50 (ACHN renal) 32.1 µM and > 100 µM | GI50 (UO-31 renal) 20.8 µM and > 100 µM | GI50 (SN12C renal) 17.9 µM and > 100 µM | GI50 (UACC-257 melanoma) 34.2 µM and > 100 µM | GI50 (HCT-15 colon) 30 µM and > 100 µM | GI50 (IGROV1 ovarian) 22.1 µM and > 100 µM | GI50 (BT-549 breast) 28 µM and > 100 µM | GI50 (CAKI-1 renal) 21.2 µM and > 100 µM | GI50 (MDA-MB-231 breast) 21.2 µM and > 100 µM | GI50 (HT29 colon) 13.8 µM and > 100 µM | GI50 (NCI-H23 lung) 33.8 µM and > 100 µM | GI50 (TK-10 renal) 27.7 µM and > 100 µM | GI50 (OVCAR-4 ovarian) 25.4 µM and > 100 µM
49.7 µM and > 100 µM: TGI (A498 renal)
78.5 µM and > 100 µM: TGI (NCI-H522 lung)
65.3 µM and > 100 µM: TGI (MDA-MB-231 breast)
69.9 µM and > 100 µM: TGI (RXF 393 renal)
45.5 µM and > 100 µM: TGI (MALME-3M melanoma) | TGI (LOX IMVI melanoma)
67.3 µM and > 100 µM: TGI (T-47D breast)
58.5 µM and > 100 µM: TGI (CCRF-CEM leukemia)
41.7 µM and > 100 µM: TGI (HL-60(TB) leukemia)
45.4 µM and > 100 µM: TGI (HCT-116 colon)
38 µM and > 100 µM: TGI (SN12C renal)
42.6 µM and > 100 µM: TGI (KM12 colon)
32.7 µM and > 100 µM: TGI (MOLT-4 leukemia)
58.8 µM and > 100 µM: TGI (NCI-H460 lung)
66.4 µM and > 100 µM: TGI (SK-MEL-5 melanoma)
